For orientation: Ki means a dissociation constant, usually derived from enzyme kinetics or from competition with a known ligand.

The target of the test is T1, human D4 receptor (D4.2 sub-type) (Homo sapiens, UniProt P21917, DEL265-296).
T1 construct: expressed in transfected cells; host or cells: HEK 298 (human embryonic kidney) cells, [sic]; homogenate of stably transfected cells
T1 sequence (P21917 with tags, fused parts or gaps DEL265-296): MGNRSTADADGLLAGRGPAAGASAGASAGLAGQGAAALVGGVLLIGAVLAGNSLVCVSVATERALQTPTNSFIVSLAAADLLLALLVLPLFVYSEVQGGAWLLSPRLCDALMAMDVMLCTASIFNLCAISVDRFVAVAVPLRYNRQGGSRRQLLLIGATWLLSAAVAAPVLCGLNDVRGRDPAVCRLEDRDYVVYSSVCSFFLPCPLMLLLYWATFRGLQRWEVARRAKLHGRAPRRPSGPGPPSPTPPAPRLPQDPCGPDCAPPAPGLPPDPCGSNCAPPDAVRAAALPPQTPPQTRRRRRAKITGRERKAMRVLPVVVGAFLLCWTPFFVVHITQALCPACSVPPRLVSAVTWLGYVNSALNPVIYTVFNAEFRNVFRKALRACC
The test can be described thus: D4 receptor binding, displacement of 3H-spiperone. Particulars: for Ki: human D4 receptor, 3H-spiperone 0.25 nM. How it is done: The potency of the test compound to reduce ^3 H-spiperone binding directly correlated to its binding affinity for the receptor.
The cells were then centrifuged in a Sorval centrifuge for 10 minutes, 5000 rpm (GS3 rotor) and the pellets quickly frozen in liquid nitrogen and stored at -80° C. until used in binding assay. When used in the assay, cells were thawed on ice for 20 minutes and then 10 mL of incubation buffer (50 mM Tris, 1 mM EDTA, 4 mM MgCl2, 5 mM KCl, 1.5 mM CaCl2, 120 mM NaCl, pH7.4) was added. […] Concentration of receptor protein was determined using the Pierce BCA assay.
Total Spiperone Binding Assay
The tubes were vortexed and incubated at room temperature for 90 minutes. The binding reaction was stopped by filtering using a Brandell Cell Harvester. The samples were filtered under vacuum over glass fibre filters (Whatman GF/B) presoaked for 2 hours in 0.3% polyethyleneimine (PEI) in 50 mM Tris buffer (pH7.4). The filters were then washed 3 times with 5 mL ice cold 50 mM Tris buffer (pH7.4). Individual filter disks were put in scintillation vials (Biovials, Bechman). Ready Protein Plus liquid scintillant (5 mL, Beckman) was added and the vials counted by liquid scintillation spectrophotometry (Beckman LSC 6500) after equilibrating for three hours at room temperature to determine total binding (BT).
Non-Specific Binding Assay for D4
The tubes were vortexed and incubated at room temperature for 90 minutes at which time the binding reaction was stopped by filtering. The filters were washed and counted using the same procedure as in the total binding assay described above to give the non-specific binding value (NSB).
Displacement Binding Assay
The incubation was started by the addition to 12×75 mm polypropylene tubes 500 μl (50 μg protein) membrane homogenate to a solution of 400 μl incubation buffer, 100 μl (0.25 final conc.) ^3 H-spiperone (90Ci/mmol, Amersham, diluted in borosilicate glass vial to) and […] of test compound that was prepared from 1 mM stock dissolved in DMSO and stored at -20° C. in polypropylene cryogenic storage vials until dilution in incubation buffer in borosilicate glass vials. The tubes were vortexed and incubated at room temperature for 90 minutes at which time the binding reaction was stopped by filtering. The filters were washed and counted using the same procedure as in the total binding assay described above to give the displacement binding value (BD).
IC50 was determined from an inhibition response curve, logit-log plot of %B/BO vs concentration of test compound.
Ki was calculated by the Cheng and Prustoff transformation: […]
where [L] is the concentration of ^3 H-spiperone used in the assay and KD is the to dissociation constant of ^3 H-spiperone determined independently under the same binding conditions.
(In general: Loss of bound radioactivity is the signal in a displacement assay; it reports binding, not function.)

Setting [1] is: compared with corresponding 4-methyl piperazine compound.

`Clc1ccc2c(c1)C=C(N1CCN(Cc3ccc4c(c3)OCO4)CC1)c1ccccc1S2` [2-chloro-10-(4-piperonyl-1-piperazinyl)dibenzo[b,f]thiepine] registered a Ki of 8.3 nM.

The molecule `Clc1ccc2c(c1)Nc1ccccc1N=C2N1CCN(Cc2ccc3c(c2)OCO3)CC1` [3-chloro-11-(4-piperonyl-1-piperazinyl)-5H-dibenzo[b,e][1,4]diazepine] showed a Ki of 23.5 nM.

Take `Clc1ccc2c(c1)N=C(N1CCN(Cc3ccc4c(c3)OCO4)CC1)c1ccccc1O2` [8-chloro-11-(4-piperonyl)-1-piperazinyl)dibenz[b,f][1,4]oxazepine]: the affinity corresponds to a Ki of 4 nM. In addition, for the setting “compared with clozapine”, the D4 affinity result is recorded as “better D4 affinity than clozapine”; the “D4 affinity and selectivity” value is “better D4 affinity and selectivity than clozapine”. In addition, where the note is “compared with clozapine and the corresponding 4-methyl compound”, the “D4 affinity and selectivity” value was “better than clozapine and the corresponding 4-methyl compound”. The “D4 affinity and selectivity” value under setting [1] is “better D4 affinity and selectivity than the corresponding 4-methyl piperazine compound”.

`c1ccc2c(c1)N=C(N1CCN(Cc3ccc4c(c3)OCO4)CC1)c1ccccc1O2` [11-(4-piperonyl)-1-piperazinyl)-dibenz[b,f][1,4]oxazepine] came in with a Ki of 30 nM. The “D4 affinity and selectivity” value under setting [1] is “better D4 affinity and selectivity than the corresponding 4-methyl piperazine compound”.

The values above are taken from patent US5798350A, “Dopamine receptor ligands” (Allelix Biopharmaceuticals, Inc., priority 1996, dated 1998).
